Test results: patent US20160303095A1, “METHODS OF TREATING HEPATITIS B VIRUS” (Gilead Sciences, Inc., priority 2015, published 2016)
pEC50: −log10 of the molar value. Read-outs that look alike come from different tables or passages of the source.

Tests used:
[1] = Alamar Blue cell viability assay; assay type: cell-based; conditions: human
Experimental: Alamar Blue cell viability reagent (Cat#DAL1100 Life Technologies, Chicago, Ill.) was diluted 1 to 10 in Maintenance Media and added to the cells. Cells were incubated for 4 h at 37° C. and the fluorescence signal, which is proportional to the number of live cells, was read using a fluorimeter with excitation/emission spectra set at 560/590 nm, respectively. Data were converted into percentages of the untreated control and non-linear regression was performed to calculate CC50 values.
PHH were plated in collagen coated tissue culture plates in Plating Media and after 4-hour incubation at 37° C., cells were switched to Maintenance Media. On the next day, the cells were infected with 500 genome equivalents per cell of Genotype-A clinical isolate 21P (ProteoGenex, Culver City, Calif.) in 100 μl Maintenance Media supplemented with 4% PEG 8000 (Cat#V3011 Promega, Madison, Wis.). After an overnight incubation the inoculum was removed and the cells were washed three times with William's Media E and maintained in Maintenance Media. […] Following the transfection, the cells were incubated at 37° C. in a humidified incubator and media was changed every 3-4 days. The assay was terminated on day 14 post infection and cell viability was assessed by Alamar Blue. The collected medium was used for determination of HBsAg and HBeAg levels by MSD ELISA while cells were processed for determination of HBV RNA using qPCR.

HBV = assay: PHH screening protocol: HBsAg and HBeAg levels by MSD ELISA; assay type: cell-based, Hepatitis B Virus; conditions: Hepatitis B virus, 336 h, compound removed after 14 days of treatment
Experimental: HBV antiviral activity was assessed in primary human hepatocytes (PHH) in a 96-well format. PHH were (Life Technologies, Chicago, 11) plated on collagen coated tissue culture plates using Plating Media containing William's Medium E supplemented with 1% Penicillin/Streptomycin, 4 μg/mL human recombinant insulin, 2 mM glutamax, 15 mM Hepes, 1 μM dexamethasone and 5% fetal bovine serum (Life Technologies, Cat#A12176-01 Life Technologies, Chicago, Ill.). After a 4-hour incubation at 37° C., cells were switched to Maintenance Media (Cat#CM4000-A15564 Life Technologies, Chicago, Ill.) containing William's Medium E supplemented with 0.5% Penicillin/Streptomycin, 6.25 μg/mL human recombinant insulin, 6.25 μg/mL human transferrin, 6.25 ng/mL selenous acid, 1.25 mg/mL bovine serum albumin, 5.35 μg/mL linoleic acid, 2 mM glutamax, 15 mM Hepes, 0.1 μM dexamethasone, 2% fetal bovine serum, and 2% DMSO (Cat#D2650 Sigma, St. Louis, Mo.). On the next day, cells were infected with approximately 500 genome equivalent of selected HBV clinical isolates (21P (GTA), 32P (GTA), 91P (GTA), AD38 (GTD), 65P (GTD) or 30P (GTE); ProteoGenex, Culver City, Calif.) per cell in Maintenance Media supplemented with 4% PEG 8000 (Cat#V3011 Promega, Madison, Wis.). After 24 hour incubation cells were washed three times with William's Medium E and fed with fresh Maintenance Media. Small molecule inhibitors targeting KDMs were serially diluted in Maintenance Media and added to cells at 3 days post infection (p.i.). Media with compounds was replenished every 2-3 days. Media collected on various days was used for determination of HBsAg and HBeAg levels by MSD ELISA, and HBV RNA by qPCR. All data were converted into percentages of the untreated control and non-linear regression was performed to calculate EC50 or CC50 values.

CCOC(=O)c1ccnc(CNCC(=O)N(CC)CCN(C)C)c1 [Example 8]
CC50 [1]: 28200 nM | pEC50 (HBV; read-out: HBeAg EC50, virus 30P, PHH donor 4239, d 14): 5.37 | pEC50 (HBV; read-out: HBeAg EC50, virus 30P, PHH donor 4239, d 17): 6.85 | pEC50 (HBV; read-out: HBeAg EC50, virus 30P, PHH donor 4239, d 20): 6.95 | pEC50 (HBV; read-out: HBeAg EC50, virus 30P, PHH donor 4239, d 25): 7.82 | pEC50 (HBV; read-out: HBeAg EC50, virus 30P, PHH donor 4239, d 31): 7.44 | pEC50 (HBV; read-out: HBeAg EC50, virus 30P, PHH donor 8130, d 14): 6.50 | pEC50 (HBV; read-out: HBeAg EC50, virus 30P, PHH donor 8130, d 17): 7.62 | pEC50 (HBV; read-out: HBeAg EC50, virus 30P, PHH donor 8130, d 20): 7.70 | pEC50 (HBV; read-out: HBeAg EC50, virus 30P, PHH donor 8130, d 25): 8.70 | pEC50 (HBV; read-out: HBeAg EC50, virus 30P, PHH donor 8130, d 31): 8.70 | pEC50 (HBV; read-out: HBeAg EC50, virus AD38, PHH donor 4239, d 14): < 4.82 | pEC50 (HBV; read-out: HBeAg EC50, virus AD38, PHH donor 4239, d 17): 5.78 | pEC50 (HBV; read-out: HBeAg EC50, virus AD38, PHH donor 4239, d 20): 6.17 | pEC50 (HBV; read-out: HBeAg EC50, virus AD38, PHH donor 4239, d 25): 6.96 | pEC50 (HBV; read-out: HBeAg EC50, virus AD38, PHH donor 4239, d 31): 6.70 | pEC50 (HBV; read-out: HBeAg EC50, virus AD38, PHH donor 8130, d 14): 5.62 | pEC50 (HBV; read-out: HBeAg EC50, virus AD38, PHH donor 8130, d 17): 6.08 | pEC50 (HBV; read-out: HBeAg EC50, virus AD38, PHH donor 8130, d 20): 6.72 | pEC50 (HBV; read-out: HBeAg EC50, virus AD38, PHH donor 8130, d 25): 7.52 | pEC50 (HBV; read-out: HBeAg EC50, virus AD38, PHH donor 8130, d 31): 8.00 | pEC50 (HBV; read-out: HBsAg EC50, virus 30P, PHH donor 4239, d 14): < 4.82 | pEC50 (HBV; read-out: HBsAg EC50, virus 30P, PHH donor 4239, d 17): 6.68 | pEC50 (HBV; read-out: HBsAg EC50, virus 30P, PHH donor 4239, d 20): 7.59 | pEC50 (HBV; read-out: HBsAg EC50, virus 30P, PHH donor 4239, d 25): 7.55 | pEC50 (HBV; read-out: HBsAg EC50, virus 30P, PHH donor 4239, d 31): 7.49 | pEC50 (HBV; read-out: HBsAg EC50, virus 30P, PHH donor 8130, d 14): 9.00 | pEC50 (HBV; read-out: HBsAg EC50, virus 30P, PHH donor 8130, d 17): 7.72 | pEC50 (HBV; read-out: HBsAg EC50, virus 30P, PHH donor 8130, d 20): 8.52 | pEC50 (HBV; read-out: HBsAg EC50, virus 30P, PHH donor 8130, d 25): 8.70 | pEC50 (HBV; read-out: HBsAg EC50, virus 30P, PHH donor 8130, d 31): 8.70 | pEC50 (HBV; read-out: HBsAg EC50, virus AD38, PHH donor 4239, d 14): 5.20 | pEC50 (HBV; read-out: HBsAg EC50, virus AD38, PHH donor 4239, d 17): 6.07 | pEC50 (HBV; read-out: HBsAg EC50, virus AD38, PHH donor 4239, d 20): 6.52 | pEC50 (HBV; read-out: HBsAg EC50, virus AD38, PHH donor 4239, d 25): 6.43 | pEC50 (HBV; read-out: HBsAg EC50, virus AD38, PHH donor 4239, d 31): 6.82 | pEC50 (HBV; read-out: HBsAg EC50, virus AD38, PHH donor 8130, d 14): 5.70 | pEC50 (HBV; read-out: HBsAg EC50, virus AD38, PHH donor 8130, d 17): 6.04
